Results from patent publication US10160747B2, “Compounds and methods for kinase modulation, and indications therefor” (Plexxikon Inc., priority 2016, dated 2018).

Assays:
[1] = molecular target: T1, BA/F3-FLT3-ITD + D835Y (Homo sapiens, UniProt P36888, D835Y, cells depend on it, form not given); test: Engineered BA/F3 cell growth assay, FLT3 ITD/D835Y; format: cell-based, murine; details: 3 d growth
T1 sequence (P36888 with tags, fused parts or gaps INS600HVDFREYEYD/D835Y): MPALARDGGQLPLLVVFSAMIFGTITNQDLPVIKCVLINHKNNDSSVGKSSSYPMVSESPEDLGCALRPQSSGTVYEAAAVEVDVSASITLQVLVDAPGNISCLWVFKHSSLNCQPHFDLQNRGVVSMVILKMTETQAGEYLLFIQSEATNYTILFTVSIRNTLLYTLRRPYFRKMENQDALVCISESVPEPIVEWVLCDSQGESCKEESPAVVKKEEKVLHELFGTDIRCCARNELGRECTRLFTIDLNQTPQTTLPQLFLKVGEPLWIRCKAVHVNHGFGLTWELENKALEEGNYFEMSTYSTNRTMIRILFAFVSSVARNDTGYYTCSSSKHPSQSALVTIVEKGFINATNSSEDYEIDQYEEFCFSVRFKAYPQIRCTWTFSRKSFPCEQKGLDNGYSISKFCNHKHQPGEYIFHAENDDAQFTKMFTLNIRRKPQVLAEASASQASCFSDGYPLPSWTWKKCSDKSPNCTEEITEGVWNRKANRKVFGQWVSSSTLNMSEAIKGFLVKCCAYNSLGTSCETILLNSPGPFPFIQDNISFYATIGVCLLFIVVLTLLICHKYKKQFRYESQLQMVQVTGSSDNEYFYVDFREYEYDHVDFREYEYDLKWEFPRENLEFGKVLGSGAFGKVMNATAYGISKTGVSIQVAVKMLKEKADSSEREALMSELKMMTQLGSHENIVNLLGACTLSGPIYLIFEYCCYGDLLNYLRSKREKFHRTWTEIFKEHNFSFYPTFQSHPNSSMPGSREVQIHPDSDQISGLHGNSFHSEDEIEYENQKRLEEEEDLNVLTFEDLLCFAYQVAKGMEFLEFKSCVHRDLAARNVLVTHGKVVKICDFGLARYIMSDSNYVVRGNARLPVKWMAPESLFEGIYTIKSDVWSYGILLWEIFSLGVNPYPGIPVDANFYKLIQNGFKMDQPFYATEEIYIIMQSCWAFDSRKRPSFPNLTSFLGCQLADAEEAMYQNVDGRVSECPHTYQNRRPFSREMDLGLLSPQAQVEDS
Outline: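 Murine Ba/F3 cells transfected with full-length FLT3 ITD/D835Y, grown without IL-3 so growth depends on FLT3. Seeded at 1×10^4 cells/well, 8-point 1:3 series to 1 μM top (0.2% DMSO), 3 days at 37 °C. CellTiter-Glo luminescence (ATP) versus concentration gave IC50.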

[2] = test system: MOLM-14 D835Y (endogenous FLT3 ITD and transfected FLT3 D835Y); test: MOLM-14 D835Y cell proliferation assay (CellTiter-Glo); format: cell-based; details: Homo sapiens, MOLM-14, 72 h; 3 d growth, GMean
Outline: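 Three-day proliferation at 37 °C/5% CO2 of FLT3-ITD MOLM-14 lines with D835Y or F691L mutation, seeded 1×10^4 per well. Compounds at eight points, top 1 μM final, 0.2% DMSO. ATP luminescence (CellTiter-Glo) gives IC50.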

With `O=C(Cc1ccc(-c2cnc3[nH]c(-c4ccccc4)cc3c2)cc1F)Nc1ccnc(C(F)(F)F)c1` [Compound P-0004, 2-[2-fluoro-4-(2-phenyl-1H-pyrrolo[2,3-b]pyridin-5-yl)phenyl]-N-[2-(trifluoromethyl)-4-pyridyl]acetamide] the GI50 [1] was 0.0001 to 10 µM and the IC50 [2] was 0.0001 to 10 µM.

With `Cn1cnc(Nc2ncc(-c3ccc(CC(=O)Nc4cnc(F)c(C(C)(F)F)c4)cc3F)cn2)c1` [Compound P-0170, N-[5-(1,1-difluoroethyl)-6-fluoro-3-pyridyl]-2-[3-fluoro-4-[2-[(1-methylimidazol-4-yl)amino]pyrimidin-5-yl]phenyl]acetamide] the GI50 [1] was 0.0001 to 10 µM and the IC50 [2] was 0.0001 to 10 µM.

`Cn1cc(Nc2ncc(-c3ccc(CC(=O)Nc4ccc(C(F)(F)F)cn4)cc3)cn2)cn1` [Compound P-0109, 2-[4-[2-[(1-methylpyrazol-4-yl)amino]pyrimidin-5-yl]phenyl]-N-[5-(trifluoromethyl)-2-pyridyl]acetamide] showed a GI50 [1] of 0.0001 to 10 µM and an IC50 [2] of 0.0001 to 10 µM.

For `COc1ccc(-c2cc3cc(-c4ccc(CC(=O)Nc5cc(C(F)(F)F)ccn5)cc4F)cnc3[nH]2)cn1` [Compound P-0191, 2-[3-fluoro-4-[2-(6-methoxy-3-pyridyl)-1H-pyrrolo[2,3-b]pyridin-5-yl]phenyl]-N-[4-(trifluoromethyl)-2-pyridyl]acetamide], the GI50 [1] was 0.0001 to 10 µM and the IC50 [2] was 0.0001 to 10 µM.

`Cn1cc(Nc2ncc(-c3ccc(CC(=O)Nc4ccc(C(F)(F)F)nc4)c(F)c3)cn2)cn1` [Compound P-0110, 2-[2-fluoro-4-[2-[(1-methylpyrazol-4-yl)amino]pyrimidin-5-yl]phenyl]-N-[6-(trifluoromethyl)-3-pyridyl]acetamide] was tested, and the GI50 [1] was 0.0001 to 10 µM and the IC50 [2] was 0.0001 to 10 µM.

In the case of `Cn1cc(Nc2ncc(-c3ccc(CC(=O)Nc4cncc(C(C)(F)F)c4)cc3)cn2)cn1` [Compound P-0144, N-[5-(1,1-difluoroethyl)-3-pyridyl]-2-[4-[2-[(1-methylpyrazol-4-yl)amino]pyrimidin-5-yl]phenyl]acetamide], the GI50 [1] is reported as 0.0001 to 10 µM and the IC50 [2] is reported as 0.0001 to 10 µM.

Work on `Cn1cc(Nc2ncc(-c3ccc(CC(=O)Nc4cccc(S(C)(=O)=O)c4)cc3)cn2)cn1` [Compound P-0155, 2-[4-[2-[(1-methylpyrazol-4-yl)amino]pyrimidin-5-yl]phenyl]-N-(3-methylsulfonylphenyl)acetamide] yielded a GI50 [1] of 0.0001 to 10 µM and an IC50 [2] of 0.0001 to 10 µM.

`CCn1cc(Nc2ncc(-c3ccc(CC(=O)Nc4cncc(C(F)(F)F)c4)cc3)cn2)cn1` [Compound P-0166, 2-[4-[2-[(1-ethylpyrazol-4-yl)amino]pyrimidin-5-yl]phenyl]-N-[5-(trifluoromethyl)-3-pyridyl]acetamide] was tested, and the GI50 [1] was 0.0001 to 10 µM and the IC50 [2] was 0.0001 to 10 µM.
